Measured values from patent US12134721B2, “Complexes and ligands” (The General Hospital Corporation, priority 2018, dated 2024).
Each block holds one compound with its values, some of them ahead of it.

What was measured:
Assay type in all cases: physicochemical
[1] = Fluorescence lifetimes of selected lanthanide (Tb, Eu, Dy, Sm) complexes; conditions: Table 1
Procedure: (§1) Photophysical measurements: UV/visible and emission spectra were recorded on a Horiba Scientific Dual FL spectrophotometer. Ligands loaded with terbium were diluted into 1×PBS (pH 7.4) to a concentration of 20 uM (for absorbance) or 4 uM (for emission). For emission spectra, the data were normalized to the highest fluorescence signal. The fluorescence lifetime was determined by plotting the ln of the signal decay over time then solving for r in Equation 1:
(§2) [formula] where It is the intensity at time t, α is a normalization term (the preexponential factor) and τ is the lifetime.

[2] = Photophysical measurements of terbium complexes in 1x PBS pH 7.4; conditions: for τPBS (fluorescence lifetime): 1x PBS pH 7.4; for Emission λmax: 1x PBS pH 7.4, 4 uM; for εmax / λmax, Abs: 1x PBS pH 7.4, 20 uM
Procedure: as §1, §2

[3] = Fluorescence lifetimes of selected lanthanide (Tb, Eu, Dy, Sm) complexes
[4] = Stability of Tb complexes (10 nM) in various buffers over 7 days; conditions: buffers with 0.05% TWEEN-20
Procedure: The stability of NCP190-Tb (10 nM) was measured over the course of 7 days in various different buffers. All buffers contained 0.05% TWEEN-20 detergent.
The stability of NCP134-Tb (10 nM) was measured over the course of 7 days in various different buffers. All buffers contained 0.05% TWEEN-20 detergent.

[5] = Dy and Sm complexes of NCP189, Table 3

Compound: Nc1nc(CCc2ccc(CNC(=O)CN3CCN4CCNC(=O)c5cccc(c5O)C(=O)NCCN(CCNC(=O)c5cccc(c5O)C3=O)CCN3CCNC(=O)c5cccc(c5O)C(=O)NCCN(CCNC(=O)c5cccc(c5O)C(=O)NCC3)CC4)cc2)c2[nH]cnc2n1 [NCP 169-Tb]
- Life Time [1]: 1.99 ms

Compound: O=C(CN1CCN2CCNC(=O)c3cccc(c3O)C(=O)NCCN(CCNC(=O)c3cccc(c3O)C1=O)CCN1CCNC(=O)c3cccc(c3O)C(=O)NCCN(CCNC(=O)c3cccc(c3O)C(=O)NCC1)CC2)NCCOCCOCCCCCCCl [NCP 166-Tb]
- Life Time [1]: 2.23 ms

Compound: O=C(O)CCCCCN1CCN2CCNC(=O)c3cccc(c3O)C(=O)NCCN(CCNC(=O)c3cccc(c3O)C1=O)CCN1CCNC(=O)c3cccc(c3O)C(=O)NCCN(CCNC(=O)c3cccc(c3O)C(=O)NCC1)CC2 [NCP 189-Tb]
- Life Time [1]: 1.79 ms

Compound: O=C(O)CN1CCN2CCNC(=O)c3cccc(c3O)C(=O)NCCN(CCNC(=O)c3cccc(c3O)C1=O)CCN1CCNC(=O)c3cccc(c3O)C(=O)NCCN(CCNC(=O)c3cccc(c3O)C(=O)NCC1)CC2 [NCP 144-Tb]
- τPBS (fluorescence lifetime) [2]: 2.06 ms
- Emission λmax [2]: 545 nm
- εmax [2]: 19,230 M^−1cm^−1
- λmax, Abs [2]: 340 nm
- Life Time [1]: 2.06 ms

Compound: BH(2,2)IAM-N-carboxymethyl-Halotag [NCP166]
- τPBS (fluorescence lifetime) [2]: 2.23 ms
- Emission λmax [2]: 545 nm
- εmax [2]: 10,800 M^−1cm^−1
- λmax, Abs [2]: 340 nm

Compound: O=C(O)CCCCCN1CCN2CCNC(=O)c3cccc(c3O)C(=O)NCCN(CCNC(=O)c3cccc(c3O)C1=O)CCN1CCNC(=O)c3cccc(c3O)C(=O)NCCN(CCNC(=O)c3cccc(c3O)C(=O)NCC1)CC2 [NCP 189-Dy]
- Life Time [3, 5]: 22.7 ms

Compound: O=C1NCCN2CCNC(=O)c3cc(Br)cc(c3O)C(=O)NCCN(CCNC(=O)c3cc(Br)cc1c3O)CCN1CCNC(=O)c3cc(Br)cc(c3O)C(=O)NCCN(CCNC(=O)c3cc(Br)cc(c3O)C(=O)NCC1)CC2 [NCP 158-Tb]
- τPBS (fluorescence lifetime) [2]: 0.97 ms
- Emission λmax [2]: 545 nm
- εmax [2]: 13,750 M^−1cm^−1
- λmax, Abs [2]: 355 nm
- Life Time [1]: 0.97 ms

Compound: O=C1NCCN2CCNC(=O)c3cccc(c3O)C(=O)NCCN(CCNC(=O)c3cccc1c3O)CCN1CCNC(=O)c3cccc(c3O)C(=O)NCCN(CCNC(=O)c3cccc(c3O)C(=O)NCC1)CC2 [NCP 134-Tb]
- Stability in various buffers [4]: only significantly destabilized by EDTA, however to a greater extent relative to NCP190-Tb
- τPBS (fluorescence lifetime) [2]: 2.10 ms
- Emission λmax [2]: 545 nm
- εmax [2]: 11,600 M^−1cm^−1
- λmax, Abs [2]: 340 nm
- Life Time [1]: 2.56 ms

Compound: O=C(CCCCCN1CCN2CCNC(=O)c3cccc(c3O)C(=O)NCCN(CCNC(=O)c3cccc(c3O)C1=O)CCN1CCNC(=O)c3cccc(c3O)C(=O)NCCN(CCNC(=O)c3cccc(c3O)C(=O)NCC1)CC2)NCCOCCOCCCCCCCl [NCP 190-Tb]
- Stability in various buffers [4]: only significantly destabilized by EDTA
- Life Time [1]: 2.46 ms

Compound: O=C(O)CCCCCN1CCN2CCNC(=O)c3cccc(c3O)C(=O)NCCN(CCNC(=O)c3cccc(c3O)C1=O)CCN1CCNC(=O)c3cccc(c3O)C(=O)NCCN(CCNC(=O)c3cccc(c3O)C(=O)NCC1)CC2 [NCP 189-Eu]
- Life Time ([3]; Eu complexes, Table 2): 598 µs

Compound: O=C(O)CCCCCN1CCN2CCNC(=O)c3cccc(c3O)C(=O)NCCN(CCNC(=O)c3cccc(c3O)C1=O)CCN1CCNC(=O)c3cccc(c3O)C(=O)NCCN(CCNC(=O)c3cccc(c3O)C(=O)NCC1)CC2 [NCP 189-Sm]
- Life Time [3, 5]: 28.1 ms

Other lines, results leading:

- Life Time ([3]; Eu complexes, Table 2): 651 µs
Compound: O=C(O)CCCCCN1CCN2CCNC(=O)c3cccc(c3O)C(=O)NCCN(CCNC(=O)c3cccc(n3)C1=O)CCN1CCNC(=O)c3cccc(c3O)C(=O)NCCN(CCNC(=O)c3cccc(c3O)C(=O)NCC1)CC2 [NCP 227-Eu]

- Life Time [1]: 1.39 ms
Compound: O=C1NCCN2CCNC(=O)c3cccc(c3O)C(=O)NCCN(CCNC(=O)c3cccc1c3O)C(=O)N1CCNC(=O)c3cccc(c3O)C(=O)NCCN(CCNC(=O)c3cccc(c3O)C(=O)NCC1)CC2 [NCP 275-Tb]

- Life Time [1]: 1.53 ms
Compound: O=C1NCCN2CCNC(=O)c3cccc(c3O)C(=O)NCCN(CCNC(=O)c3cccc1c3O)CC(=O)N1CCNC(=O)c3cccc(c3O)C(=O)NCCN(CCNC(=O)c3cccc(c3O)C(=O)NCC1)CC2 [NCP 272-Tb]

- Life Time ([3]; Eu complexes, Table 2): 657 µs
Compound: O=C(O)CCCCCN1CCN2CCNC(=O)c3cccc(c3O)C(=O)NCCN(CCNC(=O)c3cccc(c3)C1=O)CCN1CCNC(=O)c3cccc(c3O)C(=O)NCCN(CCNC(=O)c3cccc(c3O)C(=O)NCC1)CC2 [NCP 259-Eu]

- Life Time [1]: 2.11 ms
Compound: Nc1nc(CCc2ccc(CNC(=O)CCCCCN3CCN4CCNC(=O)c5cccc(c5O)C(=O)NCCN(CCNC(=O)c5cccc(c5O)C3=O)CCN3CCNC(=O)c5cccc(c5O)C(=O)NCCN(CCNC(=O)c5cccc(c5O)C(=O)NCC3)CC4)cc2)c2nc[nH]c2n1 [NCP 191-Tb]

- Life Time ([3]; Eu complexes, Table 2): 505 ms
Compound: O=C1NCCN2CCNC(=O)c3cccc(c3O)C(=O)NCCN(CCNC(=O)c3cccc1c3O)C(=O)N1CCNC(=O)c3cccc(c3O)C(=O)NCCN(CCNC(=O)c3cccc(c3O)C(=O)NCC1)CC2 [NCP 275-Eu]

- Life Time [1]: 1.37 ms
Compound: O=C(O)CCCCCN1CCN2CCNC(=O)c3cccc(c3O)C(=O)NCCN(CCNC(=O)c3cccc(c3)C1=O)CCN1CCNC(=O)c3cccc(c3O)C(=O)NCCN(CCNC(=O)c3cccc(c3O)C(=O)NCC1)CC2 [NCP 259-Tb]

- Life Time ([3]; Eu complexes, Table 2): 609 µs
Compound: O=C1NCCN2CCNC(=O)c3cccc(c3O)C(=O)NCCN(CCNC(=O)c3cccc1c3O)CC(=O)N1CCNC(=O)c3cccc(c3O)C(=O)NCCN(CCNC(=O)c3cccc(c3O)C(=O)NCC1)CC2 [NCP 272-Eu]

- Life Time [1]: 1.20 ms
Compound: O=C(O)CCCCCN1CCN2CCNC(=O)c3cccc(c3O)C(=O)NCCN(CCNC(=O)c3cccc(n3)C1=O)CCN1CCNC(=O)c3cccc(c3O)C(=O)NCCN(CCNC(=O)c3cccc(c3O)C(=O)NCC1)CC2 [NCP 227-Tb]
